Experiments:
[1] = target: T1, Recombinant human PSMA (rhPSMA) (Homo sapiens, UniProt Q04609); test: NAALADase assay (enzyme-based assay on rhPSMA); assay type: biochemical; details: NAAG substrate, unlabeled ligands, read-out: Ki (PSMA inhibition constant)
T1 construct: purchased R&D systems, Wiesbaden, Germany
Protocol: (§1) The partition coefficient of each novel radiotracer was determined using an octanol–water system (v/v = 1:1). The in vitro stability was determined using two systems (PBS and 5% BSA). The Ki value was measured by the NAALADase assay. The 22Rv1 and PC-3 cell lines were used for the cell-binding study and establishment of the tumor-bearing model (detailed information is shown in the Supplementary Materials).
The PSMA-inhibitory activity of novel PSMA ligands was analyzed by performing an enzyme-based assay on rhPSMA [11].
PBS) and reported as log p ± SD.
The in vitro stability of radiotracers was determined by measuring radiochemical purity (RCP) in […] and 5% bovine serum albumin (BSA) at 37 °C at different time intervals (30 min, 60 min, 120 min) using radio-HPLC.
Recombinant human PSMA (rhPSMA, R&D systems, Wiesbaden, Germany) was diluted in assay buffer (50 mM HEPES, 0.1 M NaCl, pH 7.5) to 0.4 μg/mL. […]
250 μL of ortho-phthaldialdehyde solution (OPA, 15 mM, Sigma, Taufkirchen, Germany) was added to each vial and incubated for 3 min at room temperature. 200 μL aliquot of each vial was added into a 96 black well plate and read at excitation and emission wavelengths of 350 and 450 nm using a microplate reader. […] The data were analyzed by the one-site total binding regression algorithm of GraphPad

[2] = Partition coefficient, octanol–water system; assay type: physicochemical; details: octanol–water (v/v = 1:1), n = 3
Protocol: as §1
PBS) and reported as log p ± SD. […]

[3] = test system: 22Rv1 cells (mild PSMA+); test: Cell uptake / binding in 22Rv1 cells; assay type: cell-based, human; details: 60 min incubation, 37 °C
From the text: Cell lines were kindly provided by the stem cell bank of the Chinese Academy of Sciences. The human prostate cancer epithelial cell lines 22Rv1 (mild PSMA+) and PC-3 (with no PSMA receptor) were used to evaluate the specific cell-binding affinity of the radiotracers, and the results were expressed as percentages of injected activity, IA%/10^6.
Cell Lines and Culture Condition
Cell lines were kindly provided by the stem cell bank, the Chinese Academy of Sciences. The human prostate cancer cell lines 22Rv1 ( mild PSMA positive) and PC3 (PSMA negative) were cultured in RPMI 1640 medium or F12K medium (CORNING, America), supplemented with 10% Fetal Bovine Serum
(GIBCO, The Netherlands) and 1% penicillin-streptomycin (CORNING, America) in a humidified incubator at 37 °C under 5% CO2. Each cell line was passaged when it was at around 80-90% confluence, and harvested using trypsin-ethylenediaminetetraacetic acid (trypsin-EDTA; 0.25% trypsin, 0.02% EDTA, all from KeyGEN BioTECH).
Cells were seeded separately in 24 well plates (1 x 10^5 cells in 1 mL medium/well) and incubated overnight, the medium was changed 2 h before the experiment. For the binding experiments, cells were incubated with novel […]
min, 30 min and 60 min (6 wells/time point). After incubation, the medium was removed and the cells were washed twice with ice-cold phosphate-buffered saline (0.5 mL). Finally, the cells were lysed by NaOH (0.5 M, 0.5 mL). Coincubation of 2-(phosphonomethyl) pentane-1,5-dioic acid […]
(2-PMPA) solution (2 μg/well) and each radiotracer for 60 min was conducted as the blocking experiment. The radioactivity of cells was measured by a γ-counter. The studies were performed in triplicate and the results were reported as the percentage injected activity (IA%/10^6 cells). […]

[4] = Blood pharmacokinetics in male ICR mice; assay type: in vivo; details: 7.4 MBq i.v., two-compartment model
Protocol: Injection of novel radiotracers or [68Ga]Ga-PSMA-617 or [68Ga]Ga-PSMA-11 […]
mice (5 mice/group), and the blood sample (5 μL) of each mouse was collected by cutting down the tail end at different time points post injection. The radioactivity of blood samples were measured by a γ-counter and the pharmacokinetics data was calculated using the WinNonlin software.
Figure S3. Time-activity curves of the blood samplesafter injection of 7.4 MBq of [68Ga]Ga-PSMA-4PY (A), [68Ga]Ga-PSMA-Q (B),[68Ga]Ga-PSMA-P (C), [68Ga]Ga-PSMA-617 (D), [68Ga]Ga-PSMA-11 (E), [68Ga]Ga-PSMA-Q-1 (F), [68Ga]Ga-PSMA-Q-2 (G) and [68Ga]Ga-PSMA-Q-3 (H).
(1 picture or pasted object on this page, not shown here)

[5] = test system: 22Rv1 tumor-bearing mice; test: Biodistribution in 22Rv1 tumor-bearing mice; details: for Uptake Blood, Mean / Uptake Bone, Mean / Uptake Heart, Mean / Uptake Kidney, Mean / Uptake Liver, Mean / Uptake Lung, Mean / Uptake Muscle, Mean / Uptake Spleen, Mean / Uptake Tumor (22Rv1), Mean: 0.74 MBq, n = 3; for Clearance profile in the kidneys: within 60 min p.i.
Protocol: (§2) The animal studies were approved by the institutional animal care and use committee of the Chinese PLA General Hospital. Healthy male ICR mice were injected with either a novel radiotracer (37 MBq in 150 μL) or saline (150 μL) for the radiotoxicity evaluation. […] Biodistribution and micro-PET studies were performed on 22Rv1 and PC-3 xenograft models, and 2-PMPA was used as the PSMA blocker (all details are shown in the Supplementary Materials).
BALB/c nude mice (male, 4-6 weeks) were inoculated subcutaneously with […]
100 mm3, the mice underwent biodistribution study and Micro-PET imaging.
The 22Rv1 tumor-bearing mice were injected with each novel radiotracer or […]
[…] Mice were sacrificed at different time points p.i. (10 min, 30 min, 60 min), tumors and interested organs were harvested, weighed and measured by a γ-counter, the results were expressed as the percentage of injected dose per gram (ID%/g).
Table S1. Uptake values for ex vivo tissues of [ 68Ga]Ga-PSMA-Q (0.74 MBq/mice) in 22Rv1 tumor-bearing mice (10, 30 and 60 min p.i., n = 3/time point).

[6] = test system: 22Rv1 tumors; test: Micro-PET imaging in 22Rv1 tumor-bearing mice; assay type: in vivo; details: 60 min p.i.; for SUVmax of tumor: 22Rv1 tumor, 7.4 MBq
Protocol: as §2
Table S9. Tumor-to-mu scle (T/M) ratio and tumor- to-kidney (T/K) rati o of radiotracers at 60 min p.i.
The Mice bearing 22Rv1 and PC-3 (n = 3/group) xenograft tumors were […]
Co-injection with 2-PMPA (50 μ g) and each novel tracer (7.4 MBq in 150 μL) was used for blocking. Then the mice were anesthetized with 3% (v/v) isoflurane and underwent Micro-PET scans with continuous 1% (v/v) isoflurane. The images were acquired at 60 min p.i.. In comparison, […]
into another group of mice (n = 3), and Micro-PET schedule was performed as […]
Imaging was performed on a Super Nova PET/CT scanner using a 100-mm-transaxial field of view for PET and 110-mm for CT.
Three-dimensional ordered-subsets expectation maximization reconstruction

[7] = Radiotoxicity study in male ICR mice; assay type: in vivo
[8] = 60 min p.i., listed as [68Ga]Ga-PSMA-Q
[9] = biodistribution, 22Rv1 tumor-bearing mice, 60 min p.i.

T1 sequence (Q04609 whole entry): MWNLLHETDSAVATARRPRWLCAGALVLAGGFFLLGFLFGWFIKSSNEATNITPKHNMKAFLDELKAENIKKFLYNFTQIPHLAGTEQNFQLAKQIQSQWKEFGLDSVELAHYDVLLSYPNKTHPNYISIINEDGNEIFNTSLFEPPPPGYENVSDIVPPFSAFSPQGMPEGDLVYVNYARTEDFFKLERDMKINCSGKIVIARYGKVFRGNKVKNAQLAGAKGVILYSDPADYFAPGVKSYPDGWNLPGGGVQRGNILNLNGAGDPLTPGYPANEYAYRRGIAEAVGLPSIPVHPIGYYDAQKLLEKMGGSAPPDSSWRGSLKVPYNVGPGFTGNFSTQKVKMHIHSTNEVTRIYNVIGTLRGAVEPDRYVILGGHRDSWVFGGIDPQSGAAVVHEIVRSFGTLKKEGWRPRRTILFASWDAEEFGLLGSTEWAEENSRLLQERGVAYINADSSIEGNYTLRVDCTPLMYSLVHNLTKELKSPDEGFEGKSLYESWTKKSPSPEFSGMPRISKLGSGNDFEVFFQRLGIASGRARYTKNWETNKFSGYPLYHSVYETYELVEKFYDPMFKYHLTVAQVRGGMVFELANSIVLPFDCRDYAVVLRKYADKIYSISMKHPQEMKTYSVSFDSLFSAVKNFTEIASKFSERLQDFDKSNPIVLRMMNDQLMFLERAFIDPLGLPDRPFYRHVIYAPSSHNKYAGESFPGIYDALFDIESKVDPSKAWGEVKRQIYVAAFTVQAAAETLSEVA

Row | Structure (SMILES) | Ki [1] [nM] | Log p pH = 7.4 [2] | Uptake in 22Rv1 cells [3] [IA%/10^6] | Elimination half-life [4] [min] | Uptake Blood, Mean ([5]; 10 min p.i.) [ID%/g] | Uptake Bone, Mean ([5]; 10 min p.i.) [ID%/g] | Uptake Heart, Mean ([5]; 10 min p.i.) [ID%/g] | Uptake Kidney, Mean ([5]; 10 min p.i.) [ID%/g] | Uptake Liver, Mean ([5]; 10 min p.i.) [ID%/g] | Uptake Lung, Mean ([5]; 10 min p.i.) [ID%/g] | Uptake Muscle, Mean ([5]; 10 min p.i.) [ID%/g] | Uptake Spleen, Mean ([5]; 10 min p.i.) [ID%/g] | Uptake Tumor (22Rv1), Mean ([5]; 10 min p.i.) [ID%/g] | Uptake Blood, Mean ([5]; 30 min p.i.) [ID%/g] | Uptake Bone, Mean ([5]; 30 min p.i.) [ID%/g] | Uptake Heart, Mean ([5]; 30 min p.i.) [ID%/g] | Uptake Kidney, Mean ([5]; 30 min p.i.) [ID%/g] | Uptake Liver, Mean ([5]; 30 min p.i.) [ID%/g] | Uptake Lung, Mean ([5]; 30 min p.i.) [ID%/g] | Uptake Muscle, Mean ([5]; 30 min p.i.) [ID%/g] | further results
1 | O=C(O)CC[C@H](NC(=O)N[C@@H](CCCCNC(=O)[C@H](Cc1ccc2ccccc2c1)NC(=O)[C@H]1CC[C@H](CNC(=O)CN2CCN(CC(=O)O)CCN(CC(=O)O)CCN(CC(=O)O)CC2)CC1)C(=O)O)C(=O)O [PSMA-617, reference compound] | 2.89 ± 1.07 | – | – | – | – | – | – | – | – | – | – | – | – | – | – | – | – | – | – | – | –
2 | O=C(O)CCC(NC(=O)NC(CCCCNC(=O)C(Cc1cc2ccc3cccc4ccc(c1)c2c34)NC(=O)C1CCC(CNC(=O)CN2CCN(CC(=O)O)CCN(CC(=O)O)CCN(CC(=O)O)CC2)CC1)C(=O)O)C(=O)O (stereo not shown) [PSMA-P] | 42.4 ± 2.11 | – | – | – | – | – | – | – | – | – | – | – | – | – | – | – | – | – | – | – | –
3 | O=C([O-])CN1CCN(CC(=O)[O-])CCN(CC(=O)NCc2ccc(C(=O)NC(Cc3cnc4ccccc4c3)C(=O)NCCCCC(NC(=O)NC(CCC(=O)O)C(=O)O)C(=O)O)cc2)CCN(CC(=O)O)CC1.[68Ga+3] (stereo not shown) [[^68Ga]Ga-PSMA-Q-3] | – | −2.99 ± 0.33 | 3.31 ± 0.49 | 25.72 ± 1.87 | 1.68 | 0.67 | 1.87 | 21.45 | 1.53 | 0.83 | 0.72 | 1.12 | 1.88 | 0.72 | 0.33 | 1.29 | 13.88 | 1.18 | 0.53 | 0.40 | Uptake Spleen, Mean ([5]; 30 min p.i.): 0.94 ID%/g; Uptake Tumor (22Rv1), Mean ([5]; 30 min p.i.): 2.77 ID%/g; Uptake Blood, Mean ([5]; 60 min p.i.): 0.34 ID%/g; Uptake Bone, Mean ([5]; 60 min p.i.): 0.23 ID%/g; Uptake Heart, Mean ([5]; 60 min p.i.): 1.11 ID%/g; Uptake Kidney, Mean ([5]; 60 min p.i.): 2.65 ID%/g; Uptake Lung, Mean ([5]; 60 min p.i.): 0.43 ID%/g; Uptake Muscle, Mean ([5]; 60 min p.i.): 0.19 ID%/g; Uptake Spleen, Mean ([5]; 60 min p.i.): 0.59 ID%/g; Uptake Tumor (22Rv1), Mean ([5]; 60 min p.i.): 3.31 ± 0.29 ID%/g; Uptake Tumor (22Rv1), Mean ([5]; 60 min p.i., listed as [68Ga]Ga-PSMA-Q-3): 3.31 ID%/g; Clearance profile in the kidneys [5]: washed out rapidly from the kidneys; SUVmax of tumor [6]: 0.88 ± 0.18
4 | O=C([O-])CN1CCN(CC(=O)[O-])CCN(CC(=O)NCC2CCC(C(=O)NC(Cc3cnc4ccccc4c3)C(=O)NCCCCC(NC(=O)NC(CCC(=O)O)C(=O)O)C(=O)O)CC2)CCN(CC(=O)O)CC1.[68Ga+3] (stereo not shown) [[^68Ga]Ga-PSMA-Q] | – | −3.24 ± 0.21 | 3.75 ± 0.35 | 17.86 ± 1.23 | 2.62 | 0.72 | 2.07 | 8.79 | 2.13 | 1.10 | 0.70 | 2.16 | 1.86 | 1.04 | 0.22 | 0.98 | 5.91 | 1.14 | 0.76 | 0.21 | Uptake Spleen, Mean ([5]; 30 min p.i.): 1.73 ID%/g; Uptake Tumor (22Rv1), Mean ([5]; 30 min p.i.): 2.98 ID%/g; Uptake Blood, Mean ([5]; 60 min p.i.): 0.31 ID%/g; Uptake Bone, Mean ([5]; 60 min p.i.): 0.21 ID%/g; Uptake Heart, Mean ([5]; 60 min p.i.): 0.08 ID%/g; Uptake Liver, Mean ([5]; 60 min p.i.): 0.70 ID%/g; Uptake Lung, Mean ([5]; 60 min p.i.): 0.33 ID%/g; Uptake Muscle, Mean ([5]; 60 min p.i.): 0.13 ID%/g; Uptake Spleen, Mean ([5]; 60 min p.i.): 0.35 ID%/g; Uptake Tumor (22Rv1), Mean ([5]; 60 min p.i.): 4.06 ± 0.36 ID%/g; Uptake Kidney, Mean [5, 8]: 2.46 ID%/g; Uptake Tumor (22Rv1), Mean [5, 8]: 4.06 ID%/g; Tumor-to-kidney (T/K) ratio [5, 9]: 1.60 ± 0.08; Tumor-to-muscle (T/M) ratio [5, 9]: 31.44 ± 2.09; Clearance profile in the kidneys [5]: washed out rapidly from the kidneys; SUVmax of tumor [6]: 0.97 ± 0.24; Tumor-to-muscle ratio (micro-PET) ([6]; 22Rv1 tumor-bearing mice): 59.33 ± 5.72; Survival ([7]; 37 MBq in 150 μL, 14 days): did not die within 14 days; Routine blood tests and H&E staining of the main organs vs control ([7]; 37 MBq in 150 μL, vs saline): no significant differences; Acute radiotoxicity-related adverse events ([7]; toxicity experiments in mice): no acute radiotoxicity-related adverse events were observed

Source: PMC9414910, “Optimized ^68Ga-Labeled Urea-Based PSMA-Targeted PET Tracers for Prostate Cancer” (Pharmaceuticals, 2022)
